Data reported in patent US6218438A, “Copolymer compositions for treating viral infections” (Supratek Pharma, Inc., priority 1999, dated 2001).

What was measured:
cells = assay: Cytotoxicity (general statement); type: cell-based
HIV IN (integrase) = HIV IN (integrase) (Human immunodeficiency virus type 1 group M subtype B, UniProt P03366); assay: Inhibition of DNA-binding activity of HIV integrase; type: biochemical; details: in vitro
[1] = Cytotoxic activity against uninfected MT2 cells (XTT assay); type: cell-based, human; details: human, 4 days at 37° C., in DMSO
Protocol: BBNH and Fe(III)-BBNH complex at various concentrations were examined for cytotoxic activity against uninfected MT2 cells. Aliquots of a solution of the compounds in dimethyl sulfoxide were added to the MT2 cells (2×10^5 cells/ml) in RPMI medium containing 10% fetal bovine serum to provide defined final concentrations of test compound. The cells and test compounds were cultured for 4 days at 37° C., in the presence of 5% CO2 and then cytotoxic effect of the compounds was analyzed by using the standard XTT assay. The CC50 calculated from the results were 10±0.5 μM for BBNH and more than 1000 μM for Fe(III)-BBNH.

[2] = system: HIV-1 replication in cells; details: Borkow et al. 1997; cited from earlier work
[3] = molecular target: T1, HIV-1 reverse transcriptase (p51/p66 RT), RDDP activity (Human immunodeficiency virus type 1 group M subtype B, UniProt P03366); assay: Inhibition of RNA dependent DNA polymerase activity of RT (RT RDDP); type: biochemical
T1 construct: 10 ng of p51/p66 heterodimeric RT per assay were used
Protocol: (§1) BBNH and Fe(III)-BBNH complex at various concentrations were examined for the ability to inhibit RNA dependent and DNA dependent DNA polymerase activities as well as RNAse H activity of HIV-1 reverse transcriptase (RT RDDP, RT DDDP, and RT RNAse H, respectively). To analyze RT RDDP and RT DDDP the following reaction mixture (100 μl total volume) was used: 50 mM Tris-HCl (pH 7.8), 60 mM KCl, 10 mM MgCl2, 10 ng of p51/p66 RT, 0.1-0.5 units of template/primer, and 0.5-25 μM [^3 H]dNTP. Aliquots of the test compounds dissolved in DMSO were added to the reaction mixtures, incubated for 10-20 min. at 37° C. and than quenched with 500 μl of cold 20 mM sodium pyrophosphate in 10% dichloroacetic acid. After 10 min. on ice, the samples were filtered on Whatman 934-AH glass fiber filters and washed with 10% dichloroacetic acid and ethanol, and the radioactivity was determined by liquid scintillation analysis. To analyze RT RNAse H the following reaction mixture (50 μl total volume) was used: 5OmM Tris-HCl (pH 8.0), 60 mM KCl, 8 mM MgCl2, and variable amounts of ([^3 H]rG)-poly(dC). Generally, 10 ng of p51/p66 heterodimeric RT per assay were used. Aliquots of the test compounds dissolved in DMSO were added to the reaction mixtures, incubated for 20 min. at 37° C. and than quenched by placing the tubes on ice followed by the addition of 100 μl of cold 7% perchloric acid. After 10 min. on ice, the samples were centrifuged at 12,000 g for 15 min. 100 μl of the supernatants were carefully removed, and the radioactivity was determined by liquid scintillation analysis.

[4] = molecular target: T2, HIV-1 reverse transcriptase (p51/p66 RT), RNAse H activity (Human immunodeficiency virus type 1 group M subtype B, UniProt P03366); assay: Inhibition of RNAse H activity of RT; type: biochemical
T2 construct: 10 ng of p51/p66 heterodimeric RT per assay were used
Protocol: as §1

HIV-1 RT = HIV-1 RT (Human immunodeficiency virus type 1 BH10, UniProt P03366); details: RDDP, RNase H, and DDDP; Borkow et al. 1997; cited from earlier work
[5] = molecular target: T3, HIV-1 reverse transcriptase (p51/p66 RT), DDDP activity (Human immunodeficiency virus type 1 group M subtype B, UniProt P03366); assay: Inhibition of DNA dependent DNA polymerase activity of RT (RT DDDP); type: biochemical
T3 construct: 10 ng of p51/p66 heterodimeric RT per assay were used
Protocol: as §1

[6] = system: HIV-1 infection of MT2 cells; assay: Inhibition of HIV-1 infection of uninfected MT2 cells; type: cell-based; details: Human immunodeficiency virus 1, compound in DMSO, 30 min before HIV
Protocol: BBNH and Fe(III)-BBNH complex at various concentrations were examined for the ability to inhibit HIV-1 infection of uninfected MT2 cells. Aliquots of a solution of the compounds in dimethyl sulfoxide were added to uninfected MT2 cells (2×10^5 cells/ml) in RPMI medium containing 10% fetal bovine serum to provide defined final concentrations of test compound. The cells and test compounds were incubated for 30 minutes at 37° C., then inoculated with a suspension of HIV virions. The cells, test compounds and HIV were incubated for 18 h at 37° C., then the cells were collected by centrifugation, washed, and resuspended in RPMI medium containing 10% fetal bovine serum and containing the same concentration of test compound as initially employed. The cells were then cultured at 37° C. (with culture medium changes as required). HIV infection was assessed by microscopic examination of HIV-induced cytopathicity (syncytium) and/or by analysis of HIV p24 antigen levels in the culture supernatants.

CC(C)(C)c1ccc(C(=O)NN=Cc2c(O)ccc3ccccc23)cc1 [BBNH, N-(4-t-butylbenzoyl)-2-hydroxy-1-naphthaldehyde hydrazone, reference compound]
cytotoxicity (cells): cytotoxic | IC50 (HIV IN (integrase)): ~5 µM | preincubation needed for maximal inhibition of IN (HIV IN (integrase); preincubation of the enzyme with BBNH): 10 to 15 min | CC50 at 96 h [1]: 10 ± 0.5 µM | inhibition of replication of HIV-1 in infected cells [2]: inhibits replication of HIV-1 in infected cells | IC50 [3]: 1.9 ± 0.1 µM | IC50 ([4]; 10 min. preincubation): 3.5 ± 0.8 µM | IC50 ([4]; No preincubation): > 50 µM | preincubation needed for maximal inhibition of RT RNase H ([4]; in vitro, preincubation of the enzyme with BBNH): 10 to 15 min | inhibition of all three enzymatic activities of HIV-1 RT in vitro (HIV-1 RT): good inhibitor of all three enzymatic activities of HIV-1 RT in vitro | IC50 [5]: 12.5 ± 5 µM | IC50 [6]: 1.5 ± 0.5 µM
